# In patent US20100204148A1, “(D-LEU7 ) -HISTRELIN AS A THERAPEUTIC AGENT” (priority 2007, published 2010):
# Key:
# HIV-1IIIB = experiment: HIV-1 antiviral assay (CPE reduction) in CEM-SS cells; type: cell-based; conditions: peptide 10 micrograms per ml; 6 days post-infection; MTS
# HCMV strain AD169 = experiment: HCMV plaque reduction assay in MRC-5 cells; type: cell-based; conditions: HCMV in MRC-5 cells; peptide 10 micrograms per ml; 7-10 days
# Text: Ganciclovir was used as positive control.
# Pseudomonas aeruginosa = type: cell-based; conditions: 10 micrograms per ml
# Streptococcus pneumoniae = type: cell-based; conditions: 10 micrograms per ml
# Human A549 cells [1] = experiment: Propidium iodide cell cycle assay; type: cell-based; conditions: 10 micrograms per ml, 24 hours, FACS
# Text: The cell cycle consists of four distinct phases: […]
# RAW 264.7 cells = experiment: Phagocytosis assay (Fluorescein-labeled Escherichia coli); type: cell-based, mouse; conditions: 10 micrograms per ml, flow cytometry
# Human A549 cells [2] = experiment: Apoptosis induction assay (Annexin-5); type: cell-based; conditions: 10 micrograms per ml, 24 hours
# Text: Human A549 cells (carcinomic human alveolar basal epithelial cells) were utilized in the experiments employing the Annexin-5 apoptosis assay.
# Human A549 cells [3] = experiment: Apoptosis prevention assay (C2 ceramide, Annexin-5); type: cell-based; conditions: 30 min pretreatment with 10 micrograms per ml
# [4] = system: spleen cells of Ovalbumin-immunized Balb/c mice; experiment: Th1/Th2 cytokine profiling assay; type: cell-based, mouse; conditions: 10 micrograms per ml; Ovalbumin restimulation; 72 hours
# [5] = system: macrophages from human PBMC; experiment: TNF alpha production assay (LPS-stimulated macrophages, ELISA); type: cell-based; conditions: 10 micrograms per ml, lipopolysaccharide 200 ng/ml, overnight
# Text: Not stimulated macrophages served as negative background control.
# [6] = system: Primary Human endothelial cells (HUVEC); experiment: Endothelial cell migration assay; type: cell-based; conditions: 10 micrograms per ml, 22 hours
# HUVEC = experiment: Endothelial tube formation assay; type: cell-based, human; conditions: 10 micrograms per ml, 20 hours
# Text: Positive control was vehicle only.
# MRSA = conditions: 10 micrograms per ml
# in vitro [7] = conditions: human, CEM-SS cells
# in vitro [8] = conditions: human
# in vitro [9] = conditions: human, MRC-5 cells (human embryonal lung fibroblasts)
# Description: The following day, peptide were added and tested in duplicates.
# [10] = system: Human Peripheral Blood Mononuclear Cells (PBMC); experiment: T cell proliferation assay (PHA, 3H-thymidine); conditions: 10 micrograms per ml
# [11] = system: Human Peripheral Blood Mononuclear Cells (PBMC); experiment: B cell proliferation assay (SAC plus IL-2, 3H-thymidine); conditions: 10 micrograms per ml
# [12] = system: hepatitis B virus (HBV) ayw strain; experiment: HBV experimental assay system (secreted HBV DNA, TaqMan PCR); conditions: HepG2-2.2.15; peptide 10 micrograms per ml; six days; HBV DNA in supernatant
compound,measurement,setting,value
"CCNC(=O)[C@@H]1CCCN1C(=O)[C@H](CCCNC(=N)N)NC(=O)[C@@H](CC(C)C)NC(=O)[C@@H](Cc1cn(Cc2ccccc2)cn1)NC(=O)[C@H](Cc1ccc(O)cc1)NC(=O)[C@H](CO)NC(=O)[C@H](Cc1c[nH]c2ccccc12)NC(=O)[C@H](Cc1c[nH]cn1)NC(=O)[C@@H]1CCC(=O)N1 [D-Leu^7-Histrelin, Pyr-His-Trp-Ser-Tyr-D-His(Bzl)-D-Leu-Arg-Pro-NHEt]",% CPE reduction in HIV-1 infected CEM-SS cells,HIV-1IIIB,0.0%
same,% plaque reduction,HCMV strain AD169,2.5%
same,% inhibition,Pseudomonas aeruginosa,0.0%
same,% inhibition,Streptococcus pneumoniae,100.0%
same,Cell cycle analysis G0/G1,Human A549 cells [1],58.9
same,Cell cycle analysis G2/M,Human A549 cells [1],9.7
same,Cell cycle analysis S,Human A549 cells [1],31.4
same,% of control phagocytosis,RAW 264.7 cells,102.9%
same,% of induction,Human A549 cells [2],4.3%
same,% prevention of ceramide induced apoptosis,Human A549 cells [3],0.0%
same,IFNγ spleen cells; TH1 response (% of control),[4],69.2 % of control
same,IL-2 spleen cells (% of control),[4],155.8 % of control
same,IL-4 spleen cells; TH2 response (% of control),[4],235.7 % of control
same,IL-5 spleen cells; TH2 response (% of control),[4],93.0 % of control
same,TNF-a spleen cells; TH1 response (% of control),[4],116.4 % of control
same,% of LPS induction,[5],111.5%
same,% inhibition of migration,[6],8%
same,% inhibition of tube formation,HUVEC,4%
same,% inhibition,MRSA,0.0%
same,viability at 10 micrograms per ml,in vitro [7],100%
same,"viability at 144 h, 10 micrograms per ml",in vitro [8],91.4%
same,viability at 144 h,in vitro [9],100%
same,% of PHA induced control,[10],96.2%
same,% of SAC/IL2 induced control,[11],92.6%
same,% inhibition of HBV replication in HEP G2 cells,[12],61.6%
